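Growth conditions: 96-well plates. Treatment: test compound, 48 hours, 5 concentrations. Analysis: linear interpolation between bracketing concentrations; unreached endpoints set to highest concentration. GI50 = concentration required for 50% inhibition of growth. TGI: concentration producing complete growth inhibition.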
Legend:
Experiment in all cases: inhibition of tumour cell growth, NCI panel, 48 h
NCI-H460 lung = tested on: NCI-H460 lung
A498 renal = tested on: A498 renal
SK-MEL-5 melanoma = tested on: SK-MEL-5 melanoma
UO-31 renal = tested on: UO-31 renal
NCI-H226 lung = tested on: NCI-H226 lung
SR leukemia = tested on: SR leukemia
HT29 colon = tested on: HT29 colon
RXF 393 renal = tested on: RXF 393 renal
UACC-62 melanoma = tested on: UACC-62 melanoma
M14 melanoma = tested on: M14 melanoma
NCI/ADR-RES ovarian = tested on: NCI/ADR-RES ovarian
UACC-257 melanoma = tested on: UACC-257 melanoma
CCRF-CEM leukemia = tested on: CCRF-CEM leukemia
CAKI-1 renal = tested on: CAKI-1 renal
MCF7 breast = tested on: MCF7 breast
SN12C renal = tested on: SN12C renal
HL-60(TB) leukemia = tested on: HL-60(TB) leukemia
MALME-3M melanoma = tested on: MALME-3M melanoma
U251 CNS = tested on: U251 CNS
OVCAR-4 ovarian = tested on: OVCAR-4 ovarian
OVCAR-5 ovarian = tested on: OVCAR-5 ovarian
NCI-H522 lung = tested on: NCI-H522 lung
K-562 leukemia = tested on: K-562 leukemia
ACHN renal = tested on: ACHN renal
A549 NSCLC = tested on: A549 NSCLC
OVCAR-3 ovarian = tested on: OVCAR-3 ovarian
SW-620 colon = tested on: SW-620 colon
HCC-2998 colon = tested on: HCC-2998 colon
TK-10 renal = tested on: TK-10 renal
MDA-MB-435 = tested on: MDA-MB-435
COLO 205 colon = tested on: COLO 205 colon
T-47D breast = tested on: T-47D breast
HS 578T breast = tested on: HS 578T breast
RPMI-8226 leukemia = tested on: RPMI-8226 leukemia
HCT-116 colon = tested on: HCT-116 colon
SF-268 CNS = tested on: SF-268 CNS
LOX IMVI melanoma = tested on: LOX IMVI melanoma
MDA-MB-231 breast = tested on: MDA-MB-231 breast
OVCAR-8 ovarian = tested on: OVCAR-8 ovarian
SNB-19 CNS = tested on: SNB-19 CNS
HCT-15 colon = tested on: HCT-15 colon
SK-MEL-2 melanoma = tested on: SK-MEL-2 melanoma
SF-295 CNS = tested on: SF-295 CNS
HOP-62 NSCLC = tested on: HOP-62 NSCLC
BT-549 breast = tested on: BT-549 breast
SK-OV-3 ovarian = tested on: SK-OV-3 ovarian
SF-539 CNS = tested on: SF-539 CNS
EKVX NSCLC = tested on: EKVX NSCLC
HOP-92 NSCLC = tested on: HOP-92 NSCLC
KM12 colon = tested on: KM12 colon
SNB-75 CNS = tested on: SNB-75 CNS
NCI-H23 lung = tested on: NCI-H23 lung
SK-MEL-28 melanoma = tested on: SK-MEL-28 melanoma
PC-3 prostate = tested on: PC-3 prostate
MOLT-4 leukemia = tested on: MOLT-4 leukemia
DU-145 prostate = tested on: DU-145 prostate
IGROV1 ovarian = tested on: IGROV1 ovarian

## O=C1/C(=C/c2ccccc2[N+](=O)[O-])Oc2ccc(O)cc21
NCI-H460 lung
  GI50: 3.09 µM
  TGI: 10.1 µM
A498 renal
  GI50: 2 µM
  TGI: 16.9 µM
SK-MEL-5 melanoma
  GI50: 8.89 µM
  TGI: 22 µM
UO-31 renal
  GI50: 1.95 µM
  TGI: 6.86 µM
NCI-H226 lung
  GI50: 1.73 µM
  TGI: 4.77 µM
SR leukemia
  GI50: 2.69 µM
  TGI: > 100 µM
HT29 colon
  GI50: 2.83 µM
  TGI: 11.3 µM
RXF 393 renal
  GI50: 1.8 µM
  TGI: 3.61 µM
UACC-62 melanoma
  GI50: 2.26 µM
  TGI: 6.2 µM
M14 melanoma
  GI50: 2.02 µM
  TGI: 4.99 µM
NCI/ADR-RES ovarian
  GI50: 2.47 µM
  TGI: 7.36 µM
UACC-257 melanoma
  GI50: 4.33 µM
  TGI: 38.3 µM
CCRF-CEM leukemia
  GI50: 2.81 µM
  TGI: > 100 µM
CAKI-1 renal
  GI50: 1.62 µM
  TGI: 3.83 µM
MCF7 breast
  GI50: 1.73 µM
  TGI: 5.52 µM
SN12C renal
  GI50: 2.52 µM
  TGI: 7.68 µM
HL-60(TB) leukemia
  GI50: 2.99 µM
  TGI: 9.91 µM
MALME-3M melanoma
  GI50: 2.08 µM
  TGI: 5.85 µM
U251 CNS
  GI50: 2.77 µM
  TGI: 11.1 µM
OVCAR-4 ovarian
  GI50: 2.58 µM
  TGI: 9.58 µM
OVCAR-5 ovarian
  GI50: 2.21 µM
  TGI: 5.72 µM
NCI-H522 lung
  GI50: 2.08 µM
  TGI: 4.83 µM
K-562 leukemia
  GI50: 2.84 µM
  TGI: > 100 µM
ACHN renal
  GI50: 2.42 µM
  TGI: 8.98 µM
A549 NSCLC
  GI50: 4.83 µM
  TGI: 26 µM
OVCAR-3 ovarian
  GI50: 1.9 µM
  TGI: 3.88 µM
SW-620 colon
  GI50: 1.66 µM
  TGI: 4.12 µM
HCC-2998 colon
  GI50: 2.74 µM
  TGI: 7.94 µM
TK-10 renal
  GI50: 3.2 µM
  TGI: 7.7 µM
MDA-MB-435
  GI50: 2.66 µM
  TGI: 7.52 µM
COLO 205 colon
  GI50: 2.19 µM
  TGI: 5.88 µM
T-47D breast
  GI50: 2.84 µM
  TGI: 19.4 µM
HS 578T breast
  GI50: 1.9 µM
  TGI: 6.35 µM
RPMI-8226 leukemia
  GI50: 2.4 µM
  TGI: 7.56 µM
HCT-116 colon
  GI50: 1.75 µM
  TGI: 4.17 µM
SF-268 CNS
  GI50: 6.32 µM
  TGI: 35.9 µM
LOX IMVI melanoma
  GI50: 1.61 µM
  TGI: 3.36 µM
MDA-MB-231 breast
  GI50: 2.6 µM
  TGI: 9.46 µM
OVCAR-8 ovarian
  GI50: 2.86 µM
  TGI: > 100 µM
SNB-19 CNS
  GI50: 5.24 µM
  TGI: 19 µM
HCT-15 colon
  GI50: 1.85 µM
  TGI: 5.47 µM
SK-MEL-2 melanoma
  GI50: 3.23 µM
  TGI: 15.1 µM
SF-295 CNS
  GI50: 4.11 µM
  TGI: 15.4 µM
HOP-62 NSCLC
  GI50: 7 µM
  TGI: 38.9 µM
BT-549 breast
  GI50: 3.16 µM
  TGI: 12.5 µM
SK-OV-3 ovarian
  GI50: 15.3 µM
  TGI: 62.1 µM
SF-539 CNS
  GI50: 2.16 µM
  TGI: 5.61 µM
EKVX NSCLC
  GI50: 3.77 µM
  TGI: 14.8 µM
HOP-92 NSCLC
  GI50: 2.24 µM
  TGI: 9.33 µM
KM12 colon
  GI50: 4.38 µM
  TGI: 16.4 µM
SNB-75 CNS
  GI50: 1.44 µM
  TGI: 42.4 µM
NCI-H23 lung
  GI50: 2.1 µM
  TGI: 5.17 µM
SK-MEL-28 melanoma
  GI50: 2.37 µM
  TGI: 6.08 µM
PC-3 prostate
  GI50: 3.08 µM
  TGI: 14.2 µM
MOLT-4 leukemia
  GI50: 3.29 µM
  TGI: > 100 µM
DU-145 prostate
  GI50: 2.26 µM
  TGI: 5.38 µM
IGROV1 ovarian
  GI50: 1.62 µM
  TGI: 6.18 µM
